Measurements taken from US6737383B1, “Herbicidal oxadiazolidines” (priority 1999, dated 2004).

Legend:
rice = assay: Test B flood test rice; type: in vivo, Oryza sativa
In short: (§1)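 Read-out is a visual response score from 0 (no effect) to 10 (complete control), assigned by comparison with untreated controls. Treatment was applied at the 2-leaf stage, and plants stayed in the greenhouse for twelve to sixteen days before scoring.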

morningglory = assay: Test B pre/postemergence morningglory; type: in vivo, Ipomoea hederacea
In short: (§2)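 Herbicidal effect was estimated by eye on a ten-point control scale after plants spent twelve to sixteen days in a greenhouse following soil or foliar treatment. Foliar sprays targeted plants at one to four leaves; all doses were formulated in a non-phytotoxic solvent with surfactant.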

cocklebur = assay: Test B pre/postemergence cocklebur; type: in vivo, Xanthium strumarium
In short: as §2

bamyardgrass = assay: Test B flood test barnyardgrass; type: in vivo, Echinochloa crus-galli
In short: as §1

giant foxtail = assay: Test B pre/postemergence giant foxtail; type: in vivo, Setaria faberii
In short: as §2

corn = assay: Test B pre/postemergence corn; type: in vivo, Zea mays
In short: as §2

purple nutsedge = assay: Test B pre/postemergence purple nutsedge; type: in vivo, Cyperus rotundus
In short: as §2

wheat = assay: Test B pre/postemergence wheat; type: in vivo, Triticum aestivum
In short: as §2

crabgrass = assay: Test B pre/postemergence crabgrass; type: in vivo, Digitaria sanguinalis
In short: as §2

duck salad = assay: Test B flood test duck salad; type: in vivo, Heteranthera limosa
In short: as §1

pigweed = assay: Test B pre/postemergence pigweed; type: in vivo, Amaranthus retroflexus
In short: as §2

soybean = assay: Test B pre/postemergence soybean; type: in vivo, Glycine max
In short: as §2

rape = assay: Test B pre/postemergence rape; type: in vivo, Brassica napus
In short: as §2

velvetleaf = assay: Test B pre/postemergence velvetleaf; type: in vivo, Abutilon theophrasti
In short: as §2

wild oat = assay: Test B pre/postemergence wild oat; type: in vivo, Avena fatua
In short: as §2

sugar beet = assay: Test B pre/postemergence sugar beet; type: in vivo, Beta vulgaris
In short: as §2

[1] = Rate 31 g/ha, Pre-emergence section (flood test species), scale 0 to 10
[2] = Rate 62 g/ha, headed Pre-emergence (flood test species), scale 0 to 10 (0 no effect, 10 complete control)
[3] = Rate 125 g/ha, Pre-emergence, flood test species, scale 0 to 10 where 0 is no effect and 10 is complete control
[4] = Rate 250 g/ha, Pre-emergence, flood-test species, scale 0 to 10, 0 is no effect, 10 is complete control
[5] = Preemergence, Rate 31 g/ha, visual rating, scale 0 to 10 (0 no effect, 10 complete control)
[6] = Preemergence, Rate 62 g/ha, scale of 0 to 10 where 0 is no effect and 10 is complete control
[7] = Preemergence, Rate 250 g/ha, scale of 0 to 10 where 0 is no effect and 10 is complete control
[8] = Rate 31 g/ha, Postemergence, scale 0 to 10
[9] = Rate 62 g/ha, Postemergence, scale 0 to 10 (0 no effect, 10 complete control)
[10] = Rate 125 g/ha, Postemergence, scale of 0 to 10 where 0 is no effect and 10 is complete control
[11] = Rate 125 g/ha, Preemergence, scale of 0 to 10 where 0 is no effect and 10 is complete control
[12] = Rate 250 g/ha, Postemergence, scale of 0 to 10 where 0 is no effect and 10 is complete control

CC(C)=CCn1c(=O)on(C(=O)N(c2ccc(F)cc2)C(C)C)c1=O [Compound 288]
Rice plant response rating (rice; [1]): 0 | Rice plant response rating (rice; [2]): 0 | Rice plant response rating (rice; [3]): 0 | Rice plant response rating (rice; [4]): 0 | Morningglory plant response rating (morningglory; [5]): 0 | Morningglory plant response rating (morningglory; [6]): 0 | Morningglory plant response rating (morningglory; [7]): 0 | Morningglory plant response rating (morningglory; [8]): 3 | Morningglory plant response rating (morningglory; [9]): 7 | Morningglory plant response rating (morningglory; [10]): 8 | Morningglory plant response rating (morningglory; [11]): 0 | Plant response rating, Morningglory (morningglory; [12]): 8 | Cocklebur plant response rating (cocklebur; [5]): 0 | Cocklebur plant response rating (cocklebur; [6]): 0 | Cocklebur plant response rating (cocklebur; [7]): 0 | Cocklebur plant response rating (cocklebur; [8]): 0 | Cocklebur plant response rating (cocklebur; [9]): 0 | Cocklebur plant response rating (cocklebur; [10]): 0 | Cocklebur plant response rating (cocklebur; [11]): 0 | Plant response rating, Cocklebur (cocklebur; [12]): 1 | Barnyardgrass plant response rating (bamyardgrass; [1]): 0 | Barnyardgrass plant response rating (bamyardgrass; [2]): 0 | Barnyardgrass plant response rating (bamyardgrass; [3]): 4 | Barnyardgrass plant response rating (bamyardgrass; [4]): 9 | Giant foxtail plant response rating (giant foxtail; [5]): 0 | Giant foxtail plant response rating (giant foxtail; [6]): 5 | Giant foxtail plant response rating (giant foxtail; [7]): 10 | Giant foxtail plant response rating (giant foxtail; [8]): 0 | Giant foxtail plant response rating (giant foxtail; [9]): 0 | Giant foxtail plant response rating (giant foxtail; [10]): 0 | Giant foxtail plant response rating (giant foxtail; [11]): 9 | Plant response rating, Giant foxtail (giant foxtail; [12]): 0 | Corn plant response rating (corn; [5]): 0 | Corn plant response rating (corn; [6]): 0 | Corn plant response rating (corn; [7]): 0 | Corn plant response rating (corn; [8]): 0 | Corn plant response rating (corn; [9]): 0 | Corn plant response rating (corn; [10]): 0 | Corn plant response rating (corn; [11]): 0 | Plant response rating, Corn (corn; [12]): 0 | Nutsedge plant response rating (purple nutsedge; [5]): 0 | Nutsedge plant response rating (purple nutsedge; [6]): 0 | Nutsedge plant response rating (purple nutsedge; [7]): 0 | Nutsedge plant response rating (purple nutsedge; [8]): 0 | Nutsedge plant response rating (purple nutsedge; [9]): 0 | Nutsedge plant response rating (purple nutsedge; [10]): 0 | Nutsedge plant response rating (purple nutsedge; [11]): 0 | Plant response rating, Nutsedge (purple nutsedge; [12]): 0 | Wheat plant response rating (wheat; [5]): 0 | Wheat plant response rating (wheat; [6]): 0 | Wheat plant response rating (wheat; [7]): 2 | Wheat plant response rating (wheat; [9]): 0 | Wheat plant response rating (wheat; [10]): 0 | Wheat plant response rating (wheat; [11]): 0 | Plant response rating, Wheat (wheat; [12]): 0 | Crabgrass plant response rating (crabgrass; [5]): 0 | Crabgrass plant response rating (crabgrass; [6]): 1 | Crabgrass plant response rating (crabgrass; [7]): 10 | Crabgrass plant response rating (crabgrass; [8]): 0 | Crabgrass plant response rating (crabgrass; [9]): 0 | Crabgrass plant response rating (crabgrass; [10]): 0 | Crabgrass plant response rating (crabgrass; [11]): 2 | Plant response rating, Crabgrass (crabgrass; [12]): 3 | Ducksalad plant response rating (duck salad; [1]): 0 | Ducksalad plant response rating (duck salad; [2]): 0 | Ducksalad plant response rating (duck salad; [3]): 0 | Ducksalad plant response rating (duck salad; [4]): 0 | Redroot pigweed plant response rating (pigweed; [5]): 0 | Redroot pigweed plant response rating (pigweed; [6]): 0 | Redroot pigweed plant response rating (pigweed; [7]): 0 | Redroot pigweed plant response rating (pigweed; [8]): 0 | Redroot pigweed plant response rating (pigweed; [9]): 0 | Redroot pigweed plant response rating (pigweed; [10]): 0 | Redroot pigweed plant response rating (pigweed; [11]): 0 | Plant response rating, Redroot pigweed (pigweed; [12]): 0 | Soybean plant response rating (soybean; [5]): 0 | Soybean plant response rating (soybean; [6]): 0 | Soybean plant response rating (soybean; [7]): 0 | Soybean plant response rating (soybean; [9]): 0 | Soybean plant response rating (soybean; [10]): 2 | Soybean plant response rating (soybean; [11]): 0 | Plant response rating, Soybean (soybean; [12]): 2 | Rape plant response rating (rape; [5]): 0 | Rape plant response rating (rape; [6]): 0 | Rape plant response rating (rape; [7]): 0 | Rape plant response rating (rape; [8]): 0 | Rape plant response rating (rape; [9]): 1 | Rape plant response rating (rape; [10]): 2 | Rape plant response rating (rape; [11]): 0 | Plant response rating, Rape (rape; [12]): 3 | Velvetleaf plant response rating (velvetleaf; [5]): 0 | Velvetleaf plant response rating (velvetleaf; [6]): 0 | Velvetleaf plant response rating (velvetleaf; [7]): 3 | Velvetleaf plant response rating (velvetleaf; [9]): 0 | Velvetleaf plant response rating (velvetleaf; [10]): 0 | Velvetleaf plant response rating (velvetleaf; [11]): 0 | Plant response rating, Velvetleaf (velvetleaf; [12]): 1 | Wild oats plant response rating (wild oat; [5]): 0 | Wild oats plant response rating (wild oat; [6]): 0 | Wild oats plant response rating (wild oat; [7]): 5 | Wild oats plant response rating (wild oat; [9]): 0 | Wild oats plant response rating (wild oat; [10]): 0 | Plant response rating, Wild oats (wild oat; [12]): 0 | Sugarbeets plant response rating (sugar beet; [5]): 0 | Sugarbeets plant response rating (sugar beet; [6]): 0 | Sugarbeets plant response rating (sugar beet; [7]): 0 | Sugarbeets plant response rating (sugar beet; [9]): 0 | Sugarbeets plant response rating (sugar beet; [10]): 0 | Sugarbeets plant response rating (sugar beet; [11]): 0 | Plant response rating, Sugarbeets (sugar beet; [12]): 0
